The target of this test is T1, MAGL (Homo sapiens, UniProt Q99685).
T1 sequence (Q99685 1-303): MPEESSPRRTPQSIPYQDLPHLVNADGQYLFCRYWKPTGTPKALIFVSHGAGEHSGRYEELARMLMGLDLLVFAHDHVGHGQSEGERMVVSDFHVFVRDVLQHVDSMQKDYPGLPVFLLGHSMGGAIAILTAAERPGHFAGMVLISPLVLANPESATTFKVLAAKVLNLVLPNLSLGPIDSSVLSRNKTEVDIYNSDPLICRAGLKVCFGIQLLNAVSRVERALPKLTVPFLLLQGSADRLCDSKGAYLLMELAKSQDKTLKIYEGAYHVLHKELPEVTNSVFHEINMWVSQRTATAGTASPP
Kind of test: 2-AG assay (MAGL inhibitory activity, hydrolysis of 2-arachidonoylglycerol to arachidonic acid followed by mass spectrometry). It counts as biochemical. To be noted: 8 μM 2-arachidonoylglycerol, 15 min pre-incubation, 30 min incubation at RT, RapidFire MS readout. The text has this:
Compounds of formula (I) were profiled for MAGL inhibitory activity by determining the enzymatic activity by following the hydrolysis of the natural substrate 2-arachidonoylglycerol (2-AG) resulting in arachidonic acid, which can be followed by mass spectrometry. This assay is hereinafter abbreviated “2-AG assay”.
Compounds of formula (I) were profiled for MAGL inhibitory activity by determining the enzymatic activity by following the hydrolysis of the natural substrate 2-arachidonoylglycerol (2-AG) resulting in arachidonic acid, which can be followed by mass spectrometry. This assay is hereinafter abbreviated “2-AG assay”. The 2-AG assay was carried out in 384 well polypropylene assay plates. […] Compound dilutions were added to MAGL protein in assay buffer (50 mM TRIS, 1 mM EDTA, 0.01% (v/v) Tween-20, 2.5% (v/v) DMSO). After shaking, the plate was incubated for 15 min at RT. To start the reaction, 2-arachidonoylglycerol in assay buffer was added. The final concentrations in the assay was […] for MAGL protein and 8 μM 2-arachidonoylglyerol. After shaking and 30 min incubation at RT, the reaction was quenched by the addition of two assay volumes of acetonitrile containing 4 μM of d8-arachidonic acid. The amount of arachidonic acid formed was traced by an online SPE system (Agilent Rapidfire) coupled to a triple quadrupole mass spectrometer. A C18 SPE cartridge (Agilent G9205A) was used in an acetonitrile/water liquid setup. The mass spectrometer was operated in negative electrospray mode following the mass transitions 303.1→259.1 for arachidonic acid and 311.1→267.0 for d8-arachidonic acid. The activity of the compounds was calculated based on the ratio of intensities [arachidonic acid/d8-arachidonic acid].
In turn, `Cc1cc(C(=O)N2CC3(CC(n4cnc(C5CC5)n4)C3)C2)nnc1OCC1(C(F)(F)F)CC1` [Example 32, [6-(3-cyclopropyl-1,2,4-triazol-1-yl)-2-azaspiro[3.3]heptan-2-yl]-[5-methyl-6-[[1-(trifluoromethyl)cyclo-propyl]methoxy]pyridazin-3-yl] methanone] showed an IC50 of 2820 nM.
Consider `O=C(N1CC(c2ccc(OC(F)(F)F)cc2)C1)N1CC2(CC(n3cnc(C4CC4)n3)C2)C1` [Example 33, [6-(3-cyclopropyl-1,2,4-triazol-1-yl)-2-azaspiro[3.3]heptan-2-yl]−[3-[4-(trifluoromethoxy)phenyl]azetidin-1-yl]methanone], for which the 50% inhibitory concentration (IC50) was 0.4 nM.
`O=C(N1CC(c2ccc(C3(N4CCOCC4)CC3)cc2)C1)N1CC2(CC(n3cnc(C4CC4)n3)C2)C1` [Example 34, [6-(3-cyclopropyl-1,2,4-triazol-1-yl)-2-azaspiro[3.3]heptan-2-yl]-[3-[4-(1-morpholinocyclopro-pyl)phenyl]azetidin-1-yl]methanone] showed an IC50 of 5.7 nM.
Take `CC(F)(F)c1ccc(C2CN(C(=O)N3CC4(CC(n5cnc(C6CC6)n5)C4)C3)C2)cc1` [Example 35]: the IC50 came out at 20 nM.
In turn, `O=C(N1CC(c2ccc(OC(F)(F)F)c(F)c2)C1)N1CC2(CC(n3cnc(C4CC4)n3)C2)C1` [Example 36, [6-(3-cyclopropyl-1,2,4-triazol-1-yl)-2-azaspiro[3.3]heptan-2-yl]-[3-[3-fluoro-4-(trifluoromethoxy)phenyl]azetidin-1-yl]methanone] displayed a half-maximal inhibitory concentration (IC50) of 0.4 nM.
Regarding `O=C(N1CC(c2ccc(CC(F)(F)F)cc2)C1)N1CC2(CC(n3cnc(C4CC4)n3)C2)C1` [Example 37, [6-(3-cyclopropyl-1,2,4-triazol-1-yl)-2-azaspiro[3.3]heptan-2-yl]-[3-[4-(2,2,2-trifluoroethyl)phenyl]azetidin-1-yl]methanone], 24.5 nM corresponded to half-maximal inhibition (IC50).
Compound `O=C(N1CC(c2ccc(C3CC3)cc2F)C1)N1CC2(CC(n3cnc(C4CC4)n3)C2)C1` [Example 38, [3-(4-cyclopropyl-2-fluoro-phenyl)azetidin-1-yl]-[6-(3-cyclopropyl-1,2,4-triazol-1-yl)-2-azaspiro[3.3]heptan-2-yl]methanone] showed a 50% inhibitory concentration (IC50) of 0.6 nM.
To `N#Cc1cc(C2CN(C(=O)N3CC4(CC(n5cnc(C6CC6)n5)C4)C3)C2)ccc1OC(F)(F)F` [Example 39, 5-[1-[6-(3-cyclopropyl-1,2,4-triazol-1-yl)-2-azaspiro[3.3]heptane-2-carbonyl]azetidin-3-yl]-2-(trifluoromethoxy) benzonitrile] belongs 2.4 nM; to `COc1cc(C(F)(F)F)ccc1CC1CC2(C1)CN(C(=O)N1CC3(CC(n4cnc(C5CC5)n4)C3)C1)C2` [Example 40, [6-(3-cyclopropyl-1,2,4-triazol-1-yl)-2-azaspiro[3.3]heptan-2-yl]−[6-[[2-methoxy-4-(trifluoromethyl)phenyl]methyl]-2-azaspiro[3.3]heptan-2-yl]methanone], 0.03 nM.
The compound `O=C(N1CC2(CC(Cc3ccc(F)cc3F)C2)C1)N1CC2(CC(n3cnc(C4CC4)n3)C2)C1` [Example 41, [6-(3-cyclopropyl-1,2,4-triazol-1-yl)-2-azaspiro[3.3]heptan-2-yl]-[6-[(2,4-difluorophenyl)methyl]-2-azaspiro[3.3]heptan-2-yl]methanone] came in with a concentration for half-maximal inhibition (IC50) of 0.04 nM.
Compound `O=C(N1CC2(CC(Oc3ccc(OC(F)(F)F)cc3F)C2)C1)N1CC2(CC(n3cnc(C4CC4)n3)C2)C1` [Example 42, [6-(3-cyclopropyl-1,2,4-triazol-1-yl)-2-azaspiro[3.3]heptan-2-yl]−[6-[2-fluoro-4-(trifluoromethoxy)phenoxy]-2-azaspiro[3.3]heptan-2-yl]methanone] had an IC50 of 0.1 nM.
`O=C(N1CC2(CC(Oc3ccc(C(F)(F)F)cc3)C2)C1)N1CC2(CC(n3cnc(C4CC4)n3)C2)C1` [Example 43, [6-(3-cyclopropyl-1,2,4-triazol-1-yl)-2-azaspiro[3.3]heptan-2-yl]-[6-[4-(trifluoromethyl)phenoxy]-2-azaspiro[3.3]heptan-2-yl]methanone] showed a 50% inhibitory concentration (IC50) of 0.1 nM.
To `CC(C)(C)c1ccc(C2CN(C(=O)N3CC4(CC(n5cnc(C6CC6)n5)C4)C3)C2)cc1` [Example 44, [3-(4-tert-butylphenyl)azetidin-1-yl]-[6-(3-cyclopropyl-1,2,4-triazol-1-yl)-2-azaspiro[3.3]heptan-2-yl]methanone] belongs 0.2 nM.
In the case of `O=C(N1CC2(CC(Oc3ccc(F)cc3Cl)C2)C1)N1CC2(CC(n3cnc(C4CC4)n3)C2)C1` [Example 45, [6-(2-chloro-4-fluoro-phenoxy)-2-azaspiro[3.3]heptan-2-yl]-[6-(3-cyclopropyl-1,2,4-triazol-1-yl)-2-azaspiro[3.3]heptan-2-yl]methanone], half-maximal inhibition (IC50) was put at 0.2 nM.
Next, `O=C(N1CC2(CC(Oc3cc(F)cc(C(F)(F)F)c3)C2)C1)N1CC2(CC(n3cnc(C4CC4)n3)C2)C1` [Example 46, (6-(3-cyclopropyl-1H-1,2,4-triazol-1-yl)-2-azaspiro[3.3]heptan-2-yl)(6-(3-fluoro-5-(trifluoromethyl)phenoxy)-2-azaspiro[3.3]heptan-2-yl)methanone]: 0.2 nM.
Compound `N#Cc1cc(OC(F)(F)F)ccc1OC1CC2(C1)CN(C(=O)N1CC3(CC(n4cnc(C5CC5)n4)C3)C1)C2` [Example 47] had an IC50 of 0.2 nM.
`O=C(N1CC(c2ccc(C3(C(F)(F)F)CC3)cc2)C1)N1CC2(CC(n3cnc(C4CC4)c3)C2)C1` [Example 48, [6-(4-cyclopropylimidazol-1-yl)-2-azaspiro[3.3]heptan-2-yl]-[3-[4-[1-(trifluoromethyl)cyclo-propyl]phenyl]azetidin-1-yl]methanone] yielded a concentration for half-maximal inhibition (IC50) of 0.2 nM.
In turn, `O=C(N1CC(OCc2ccc(S(F)(F)(F)(F)F)cc2F)C1)N1CC2(CC(n3cnc(C4CC4)n3)C2)C1` [Example 49] yielded an IC50 of 0.3 nM.
Regarding `O=C(N1CC2(CC(Cc3ccc(F)c(F)c3)C2)C1)N1CC2(CC(n3cnc(C4CC4)n3)C2)C1` [Example 50, (6-(3-cyclopropyl-1H-1,2,4-triazol-1-yl)-2-azaspiro[3.3]heptan-2-yl)(6-(3,4-difluorobenzyl)-2-azaspiro[3.3]heptan-2-yl)methanone], the IC50 amounted to 0.3 nM.
To `O=C(N1CC2(CC(Oc3cncc(C(F)(F)F)n3)C2)C1)N1CC2(CC(n3cnc(C4CC4)n3)C2)C1` [Example 51, (6-(3-cyclopropyl-1H-1,2,4-triazol-1-yl)-2-azaspiro[3.3]heptan-2-yl)(6-((6-(trifluoromethyl)pyrazin-2-yl)oxy)-2-azaspiro[3.3]heptan-2-yl)methanone] belongs 0.3 nM.
Compound `O=C(N1CC2(CC(Oc3ccc(C(F)(F)F)cn3)C2)C1)N1CC2(CC(n3cnc(C4CC4)n3)C2)C1` [Example 52, [6-(3-cyclopropyl-1,2,4-triazol-1-yl)-2-azaspiro[3.3]heptan-2-yl]-[6-[[5-(trifluoromethyl)-2-pyridyl]oxy]-2-azaspiro[3.3]heptan-2-yl]methanone] returned a half-maximal inhibitory concentration (IC50) of 0.4 nM.
`O=C(N1CC(c2ccc(OC(F)(F)F)c(Cl)c2)C1)N1CC2(CC(n3cnc(C4CC4)n3)C2)C1` [Example 53, [3-[3-chloro-4-(trifluoromethoxy)phe-nyl]azetidin-1-yl]-[6-(3-cyclopropyl-1,2,4-triazol-1-yl)-2-azaspiro[3.3]heptan-2-yl]methanone] yielded an IC50 of 0.7 nM.
Consider `O=C(N1CC2(CC(Oc3ccc(OC(F)(F)F)cc3)C2)C1)N1CC2(CC(n3cnc(C4CC4)n3)C2)C1` [Example 54, [6-(3-cyclopropyl-1,2,4-triazol-1-yl)-2-azaspiro[3.3]heptan-2-yl]-[6-[4-(trifluoromethoxy)phe-noxy]-2-azaspiro[3.3]heptan-2-yl]methanone], for which the half-inhibitory concentration (IC50) was 1.2 nM.
`O=C(N1CC2(CC(Oc3ccnc(C(F)(F)F)n3)C2)C1)N1CC2(CC(n3cnc(C4CC4)n3)C2)C1` [Example 55, [6-(3-cyclopropyl-1,2,4-triazol-1-yl)-2-azaspiro[3.3]heptan-2-yl]−[6-[2-(trifluoromethyl)pyrimidin-4-yl]oxy-2-azaspiro[3.3]heptan-2-yl]methanone] registered an IC50 of 1.8 nM.
For the compound `O=C(N1CC2(CC(Oc3ccc(OC(F)F)nc3)C2)C1)N1CC2(CC(n3cnc(C4CC4)n3)C2)C1` [Example 56, (6-(3-cyclopropyl-1H-1,2,4-triazol-1-yl)-2-azaspiro[3.3]heptan-2-yl)(6-((6-(difluoromethoxy)pyridin-3-yl)oxy)-2-azaspiro[3.3]heptan-2-yl)methanone], the IC50 was found to be 2.5 nM.

The values above are taken from patent US20240199587A1, “HETEROCYCLIC COMPOUNDS” (Hoffmann-La Roche Inc., priority 2021, published 2024).
